The values that follow come from paper PMC10283505, “CVM-1118 (foslinanib), a 2-phenyl-4-quinolone derivative, promotes apoptosis and inhibits vasculogenic mimicry via targeting TRAP1” (Pathology and Oncology Research, 2023).

For assay [1], the system named is U251. Put plainly: NCI 60 cytotoxicity screening. In kind it is cell-based. The conditions noted are these: Homo sapiens, U-251; U251, CNS.
Assay [2] addresses T1, Catenin α2 (Homo sapiens, UniProt P26232).
T1 sequence (P26232 1-953): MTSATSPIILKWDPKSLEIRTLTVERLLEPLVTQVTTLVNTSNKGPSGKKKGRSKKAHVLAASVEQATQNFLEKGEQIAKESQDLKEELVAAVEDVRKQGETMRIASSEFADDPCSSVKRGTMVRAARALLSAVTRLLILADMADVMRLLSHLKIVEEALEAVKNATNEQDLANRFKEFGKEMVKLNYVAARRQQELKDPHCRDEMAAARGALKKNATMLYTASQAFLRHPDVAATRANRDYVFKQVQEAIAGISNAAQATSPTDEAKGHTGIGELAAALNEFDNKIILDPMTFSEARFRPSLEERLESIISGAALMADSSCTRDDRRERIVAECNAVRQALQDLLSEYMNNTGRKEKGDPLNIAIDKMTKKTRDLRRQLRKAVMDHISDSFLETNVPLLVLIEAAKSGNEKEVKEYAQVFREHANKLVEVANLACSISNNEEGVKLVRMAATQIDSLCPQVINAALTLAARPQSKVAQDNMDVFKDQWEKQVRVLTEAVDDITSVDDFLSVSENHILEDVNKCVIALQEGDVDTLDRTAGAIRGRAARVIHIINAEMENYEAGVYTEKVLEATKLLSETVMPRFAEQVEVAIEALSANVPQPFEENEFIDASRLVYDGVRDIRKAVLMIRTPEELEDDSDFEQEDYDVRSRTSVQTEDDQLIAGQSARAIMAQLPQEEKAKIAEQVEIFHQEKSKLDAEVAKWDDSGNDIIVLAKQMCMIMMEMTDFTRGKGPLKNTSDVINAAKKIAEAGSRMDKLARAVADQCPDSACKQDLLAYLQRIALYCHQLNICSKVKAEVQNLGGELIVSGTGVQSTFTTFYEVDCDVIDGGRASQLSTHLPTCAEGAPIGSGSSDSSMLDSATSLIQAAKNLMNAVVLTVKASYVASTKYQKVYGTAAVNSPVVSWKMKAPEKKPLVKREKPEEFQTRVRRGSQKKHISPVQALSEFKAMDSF
Put plainly: Surface plasmon resonance (Biacore). The following applies: Catenin α2, SPR. In kind it is binding.

The subject of assay [3] is DU-145. Put plainly: NCI 60 cytotoxicity screening. Format: cell-based. The following applies: Homo sapiens; DU-145, Prostate.
The subject of assay [4] is PC-3. Put plainly: NCI 60 cytotoxicity screening. Format: cell-based. The conditions noted are these: Homo sapiens; PC-3, Prostate.
Assay [5] concerns the target T2, TRAP1 (Homo sapiens, UniProt Q12931).
T2 sequence (Q12931 60-704): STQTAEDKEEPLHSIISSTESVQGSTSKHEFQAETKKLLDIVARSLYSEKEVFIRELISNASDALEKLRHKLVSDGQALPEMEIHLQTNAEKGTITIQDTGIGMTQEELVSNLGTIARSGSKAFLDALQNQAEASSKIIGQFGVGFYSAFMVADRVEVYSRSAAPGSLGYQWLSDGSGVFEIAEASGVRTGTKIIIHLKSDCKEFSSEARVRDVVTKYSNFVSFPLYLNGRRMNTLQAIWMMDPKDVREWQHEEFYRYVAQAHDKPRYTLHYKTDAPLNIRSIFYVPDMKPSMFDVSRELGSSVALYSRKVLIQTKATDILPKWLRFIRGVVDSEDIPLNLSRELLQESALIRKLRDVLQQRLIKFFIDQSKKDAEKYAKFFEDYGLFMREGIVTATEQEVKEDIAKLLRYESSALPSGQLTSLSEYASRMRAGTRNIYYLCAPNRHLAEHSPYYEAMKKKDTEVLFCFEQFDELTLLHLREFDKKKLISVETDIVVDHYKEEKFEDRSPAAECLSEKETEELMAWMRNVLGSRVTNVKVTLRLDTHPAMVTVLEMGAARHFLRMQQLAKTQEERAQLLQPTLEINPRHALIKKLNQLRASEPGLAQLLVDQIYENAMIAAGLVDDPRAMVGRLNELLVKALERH
Put plainly: In vitro ATPase assay. The following applies: data not shown. In kind it is biochemical.

In assay [6] the test system is Smad2/P-Smad2. Put plainly: Western blot of P-Smad2/Smad2. In kind it is cell-based, human. The following applies: C8161, 10 nM, 24 h, relative to β-actin, against control. As to the method: Cells at 80% confluence were rinsed with PBS, harvested by scrapping into a modified RIPA buffer plus protease inhibitor cocktail using 100 μL buffer per 1 × 10^6 cells. After sonication and centrifugation, the protein concentrations in the supernatants were determined using a BCA assay (Thermo Fisher Scientific). […] Nodal was detected using a mouse monoclonal anti-Nodal antibody (sc-373910; Santa Cruz; 1 μg/ml in 20 mM Tris/150 mM NaCl/0.1% [w/v] Tween 20, pH 7.4 [TBST] plus 5% BSA) followed by an anti-mouse plus horseradish peroxidase (HRP) secondary antibody (NXA931; GE Healthcare; 1 μg/ml in TBST plus 5% BSA) and enhanced chemiluminescence (ECL; GE Healthcare). Smad2 was detected using a rabbit polyclonal anti-Smad2/3 antibody (07-408; Millipore; 1 μg/ml in TBST plus 5% BSA) followed by an anti-rabbit plus HRP secondary antibody (NA934V; GE Healthcare; 1 μg/ml in TBST plus 5% BSA) and ECL. […] To assess relative changes in protein expression, the exposed films were digitized using a ChemiDoc XRS imager (Bio-Rad Laboratories) and the relative amount of protein determined against the untreated control cells normalized to a value of 1.0 using the imager’s Quantity One software package (Bio-Rad Laboratories) and corrected for loading of protein into each lane against the β-actin protein measured in the control lane.
On the technique in general: In western blotting, separated proteins are transferred to a membrane and probed.

With `COc1ccc2[nH]c(-c3cccc(F)c3)cc(=O)c2c1O` [CVM-1125], the GI50 (in general, the concentration giving 50% growth inhibition) in assay [1] came out at 42.9 nM. For the same compound, in assay [2], the “Association (ka)” value is on record as “No dose dependent interaction”, the “Dissociation (kd)” value is on record as “No dose dependent interaction” and the “KD (kd/ka)” value is reported as “No dose dependent interaction”. This compound also registered a GI50 in assay [3] of 21.1 nM. The 50% growth inhibitory concentration (GI50) in assay [4] was 32.6 nM. Besides, the “influence on the ATPase activity of TRAP1” value in assay [5] was “no influence”.
Consider `COc1ccc2[nH]c(-c3cccc(F)c3)cc(=O)c2c1OP(=O)(O)O` [CVM-1118], for which, in assay [6], the “reduction in the ratio of P-Smad2 to Smad2 protein level” value is reported as 76%.
